How the values were obtained:
[1] = Moisture content by Karl Fischer titration; format: physicochemical
Method: • Differential scanning calorimetry plots were recorded using the following instrument and parameters: • DSC821 e, Mettler Toledo • Sample weight: 8-10 mg • Temperature range: 25-300° C. • Heating rate: 10° C./min • Nitrogen 20.0 mL/min • Number of holes in the crucible: 1 (d) TGA analysis was carried out using Perkin Elmer Instrument (e) Moisture content determination was carried out by Karl-Fischer titration technique using Mettler instrument.

[2] = Hygroscopicity: moisture absorption on exposure to atmospheric / normal storage conditions, stability studies; format: physicochemical; settings: for hygroscopicity: normal storage conditions / stability studies

SMILES | moisture content after absorption of water ([1]; TGA and Karl Fischer analysis, after absorption of water) | moisture content, initial ([1]; TGA and Karl Fischer analysis, initially) | moisture absorbed after exposure to atmospheric conditions ([2]; after exposure to atmospheric conditions) | hygroscopicity [2] | Moisture Content ([1]; product of Example 3, dried at 45 to 50° C. under reduced pressure) [% w/w]
Cc1ccc(-c2nc3ccc(C)cn3c2CC(=O)N(C)C)cc1 [Form A, zolpidem hemitartrate] | up to 5% | about 1.0 % w/w | up to 5 % w/w | very hygroscopic | 
Cc1ccc(-c2nc3ccc(C)cn3c2CC(=O)N(C)C)cc1 [Form I, zolpidem hemitartrate] |  |  |  | non-hygroscopic | 2.33

Source: patent US20080262025A1, “Processes for the Preparation of Zolpidem and its Hemitartrate” (priority 2004, published 2008)
